Results: patent US8877744B2, “1,4-Oxazepines as BACE1 and/or BACE2 inhibitors” (Hoffmann-La Roche Inc., priority 2011, dated 2014)
Where a name gives a salt, the structure may show the parent alone.

Each compound was assayed against T1, BACE1 (Homo sapiens, UniProt P56817) (assay: Cellular Aβ-lowering assay b): HEK293 APP Abeta 40 AlphaLISA Assay). Conditions: assay b): HEK293 APP cells, Aβ 40 in supernatant by AlphaLISA, 18-20 hrs incubation.
T1 construct: endogenous in cells; host or cells: HEK293 stably transfected with human APP695 wt
T1 sequence (P56817 46-501): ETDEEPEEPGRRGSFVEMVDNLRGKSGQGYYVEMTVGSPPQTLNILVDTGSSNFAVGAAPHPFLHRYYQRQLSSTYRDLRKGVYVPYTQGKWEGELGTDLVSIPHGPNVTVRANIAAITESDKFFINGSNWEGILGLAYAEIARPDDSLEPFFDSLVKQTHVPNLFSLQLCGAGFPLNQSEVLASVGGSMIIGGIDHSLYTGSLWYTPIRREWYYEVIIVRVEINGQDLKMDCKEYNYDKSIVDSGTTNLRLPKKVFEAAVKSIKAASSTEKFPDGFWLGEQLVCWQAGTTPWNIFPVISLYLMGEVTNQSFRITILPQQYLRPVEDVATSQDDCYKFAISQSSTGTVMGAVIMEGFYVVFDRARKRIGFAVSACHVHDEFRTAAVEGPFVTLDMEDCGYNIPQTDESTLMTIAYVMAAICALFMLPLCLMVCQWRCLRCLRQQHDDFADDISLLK
Format: cell-based
Experimental: b) HEK293 APP: Abeta 40 AlphaLISA Assay
The cells were seeded in 96 well Microtiter plates in cell culture medium (Iscove's, plus 10% (v/v) fetal bovine serum, penicillin/streptomycin) to about 80% confluency and the compounds were added at a 3× concentration in ⅓ volume of culture medium (final DMSO concentration was kept at 1% v/v). After 18-20 hrs incubation at 37° C. and 5% CO2 in a humidified incubator, the culture supernatants were harvested for the determination of Aβ 40 concentrations using Perkin-Elmer Human Amyloid beta 1-40 (high specificity) Kit (Cat#AL275C).
In a Perkin-Elmer White Optiplate-384 (Cat#6007290), […] culture supernatants were combined with 2 μl of a 10X AlphaLISA Anti-hAβ Acceptor beads+Biotinylated Antibody Anti-Aβ 1-40 Mix (50 μg/mL/5 nM). After 1 hour room temperature incubation, 16 μl of a 1.25× preparation of Streptavidin (SA) Donor beads (25 μg/mL) were added and incubated for 30 minutes in the Dark. Light Emission at 615 nm was then recorded using EnVision-Alpha Reader. Levels of Aβ 40 in the culture supernatants were calculated as percentage of maximum signal (cells treated with 1% DMSO without inhibitor). The IC50 values were calculated using the Excel XLfit software.

| Compound | IC50 [µM] |
| --- | --- |
| CC(C)(C)COS(=O)(=O)c1cccc(-c2ccc(F)c([C@@]3(C)N=C(N)COC(C)(C)C3(F)F)c2)c1 [Example 12, 3′-((R)-3-Amino-6,6-difluoro-5,7,7-trimethyl-2,5,6,7-tetrahydro-[1,4]oxazepin-5-yl)-4′-fluoro-biphenyl-3-sulfonic acid 2,2-dimethyl-propyl ester] | 5.18 |
| CC(C)(C)NS(=O)(=O)c1cncc(-c2ccc(F)c([C@@]3(C)N=C(N)COC(C)(C)C3(F)F)c2)c1 [Example 16, 5-[3-((R)-3-Amino-6,6-difluoro-5,7,7-trimethyl-2,5,6,7-tetrahydro-[1,4]oxazepin-5-yl)-4-fluoro-phenyl]-pyridine-3-sulfonic acid tert-butylamide] | 1.55 |
| CC1(C)OCC(N)=N[C@](C)(c2cc(-c3ccc(C#N)cc3)ccc2F)C1(F)F [Example 20, 3′-((R)-3-Amino-6,6-difluoro-5,7,7-trimethyl-2,5,6,7-tetrahydro-[1,4]oxazepin-5-yl)-4′-fluoro-biphenyl-4-carbonitrile] | 0.71 |
| CC1(C)OCC(N)=N[C@](C)(c2cc(-c3cn(-c4ccccn4)cn3)ccc2F)C1(F)F [Example 22, (R)-6,6-Difluoro-5-[2-fluoro-5-(1-pyridin-2-yl-1H-imidazol-4-yl)-phenyl]-5,7,7-trimethyl-2,5,6,7-tetrahydro-[1,4]oxazepin-3-ylamine] | 0.2 |
| CC1(C)OCC(N)=N[C@](C)(c2cc(-c3cn(-c4ccc(C(F)(F)F)cn4)cn3)ccc2F)C1(F)F [Example 23, (R)-6,6-Difluoro-5-{2-fluoro-5-[1-(5-trifluoromethyl-pyridin-2-yl)-1H-imidazol-4-yl]-phenyl}-5,7,7-trimethyl-2,5,6,7-tetrahydro-[1,4]oxazepin-3-ylamine] | 0.22 |
| CC1(C)OCC(N)=N[C@](C)(c2cc(C#Cc3cccc(Cl)c3)c(F)cc2F)C1(F)F [Example 24, (R)-5-[5-(3-Chloro-phenylethynyl)-2,4-difluoro-phenyl]-6,6-difluoro-5,7,7-trimethyl-2,5,6,7-tetrahydro-[1,4]oxazepin-3-ylamine] | 1.27 |
| CC1(C)OCC(N)=N[C@](C)(c2cc(-c3ncc(Cl)cn3)c(F)cc2F)C1(F)F [Example 32, (R)-5-[5-(5-Chloro-pyrimidin-2-yl)-2,4-difluoro-phenyl]-6,6-difluoro-5,7,7-trimethyl-2,5,6,7-tetrahydro-[1,4]oxazepin-3-ylamine] | 0.5 |
| CC1(C)OCC(N)=N[C@](C)(c2cc(C#Cc3ccc(C#N)cn3)ccc2F)C1(F)F [Example 33, 6-[3-((R)-3-Amino-6,6-difluoro-5,7,7-trimethyl-2,5,6,7-tetrahydro-[1,4]oxazepin-5-yl)-4-fluoro-phenylethynyl]-nicotinonitrile] | 0.003 |
| CC1(C)OCC(N)=N[C@](C)(c2cc(C#Cc3cncc(Cl)c3)ccc2F)C1(F)F [Example 38, (R)-5-[5-(5-Chloro-pyridin-3-ylethynyl)-2-fluoro-phenyl]-6,6-difluoro-5,7,7-trimethyl-2,5,6,7-tetrahydro-[1,4]oxazepin-3-ylamine] | 0.152 |
| COc1cnc(C#Cc2ccc(F)c([C@@]3(C)N=C(N)COC(C)(C)C3(F)F)c2)cn1 [Example 40, (R)-6,6-Difluoro-5-[2-fluoro-5-(5-methoxy-pyrazin-2-ylethynyl)-phenyl]-5,7,7-trimethyl-2,5,6,7-tetrahydro-[1,4]oxazepin-3-ylamine] | 0.48 |

Second part, the compound after the results:

| IC50 [µM] | Compound |
| --- | --- |
| 0.51 | CC1(C)OCC(N)=N[C@](C)(c2cc(-c3cc(F)cc(Cl)c3)ccc2F)C1(F)F [Example 11, (R)-5-(5′-Chloro-4,3′-difluoro-biphenyl-3-yl)-6,6-difluoro-5,7,7-trimethyl-2,5,6,7-tetrahydro-[1,4]oxazepin-3-ylamine hydrochloride] |
| 4 | CC(C)(C)NS(=O)(=O)c1cccc(-c2ccc(F)c([C@@]3(C)N=C(N)COC(C)(C)C3(F)F)c2)c1 [Example 15, 3′-((R)-3-Amino-6,6-difluoro-5,7,7-trimethyl-2,5,6,7-tetrahydro-[1,4]oxazepin-5-yl)-4′-fluoro-biphenyl-3-sulfonic acid tert-butylamide] |
| 7.43 | CC1(C)OCC(N)=N[C@](C)(c2cc(-c3nc4ccc(Cl)cc4s3)ccc2F)C1(F)F [Example 21, (R)-5-[5-(6-Chloro-benzothiazol-2-yl)-2-fluoro-phenyl]-6,6-difluoro-5,7,7-trimethyl-2,5,6,7-tetrahydro-[1,4]oxazepin-3-ylamine hydrochloride] |
| 0.94 | CC1(C)OCC(N)=N[C@](C)(c2cc(-c3cnn(-c4ccc(F)cc4)c3)c(F)cc2F)C1(F)F [Example 29, (R)-6,6-Difluoro-5-{2,4-difluoro-5-[1-(4-fluoro-phenyl)-1H-pyrazol-4-yl]-phenyl}-5,7,7-trimethyl-2,5,6,7-tetrahydro-[1,4]oxazepin-3-ylamine] |
| 0.075 | COc1ncc(-c2cc([C@@]3(C)N=C(N)COC(C)(C)C3(F)F)c(F)cc2F)cn1 [Example 30, (R)-5-[2,4-Difluoro-5-(2-methoxy-pyrimidin-5-yl)-phenyl]-6,6-difluoro-5,7,7-trimethyl-2,5,6,7-tetrahydro-[1,4]oxazepin-3-ylamine formate] |
| 0.18 | CC1(C)OCC(N)=N[C@](C)(c2cc(-c3nc4ccc(Cl)cc4o3)c(F)cc2F)C1(F)F [Example 31, (R)-5-[5-(6-Chloro-benzooxazol-2-yl)-2,4-difluoro-phenyl]-6,6-difluoro-5,7,7-trimethyl-2,5,6,7-tetrahydro-[1,4]oxazepin-3-ylamine] |
| 0.013 | CC1(C)OCC(N)=N[C@](C)(c2cc(C#Cc3ncc(Cl)cn3)ccc2F)C1(F)F [Example 34, (R)-5-[5-(5-Chloro-pyrimidin-2-ylethynyl)-2-fluoro-phenyl]-6,6-difluoro-5,7,7-trimethyl-2,5,6,7-tetrahydro-[1,4]oxazepin-3-ylamine] |
| 0.079 | CC1(C)OCC(N)=N[C@](C)(c2cc(C#Cc3ccnc(Cl)c3)ccc2F)C1(F)F [Example 35, (R)-5-[5-(2-Chloro-pyridin-4-ylethynyl)-2-fluoro-phenyl]-6,6-difluoro-5,7,7-trimethyl-2,5,6,7-tetrahydro-[1,4]oxazepin-3-ylamine] |
| 0.115 | CC1(C)OCC(N)=N[C@](C)(c2cc(C#Cc3cc(C#N)ccn3)ccc2F)C1(F)F [Example 36, 2-[3-((R)-3-Amino-6,6-difluoro-5,7,7-trimethyl-2,5,6,7-tetrahydro-[1,4]oxazepin-5-yl)-4-fluoro-phenylethynyl]-isonicotinonitrile] |
| 0.145 | CC1(C)OCC(N)=N[C@](C)(c2cc(C#Cc3ccc(Cl)nn3)ccc2F)C1(F)F [Example 37, (R)-5-[5-(6-Chloro-pyridazin-3-ylethynyl)-2-fluoro-phenyl]-6,6-difluoro-5,7,7-trimethyl-2,5,6,7-tetrahydro-[1,4]oxazepin-3-ylamine] |
| 0.36 | CC1(C)OCC(N)=N[C@](C)(c2cc(C#Cc3ccccn3)ccc2F)C1(F)F [Example 39, (R)-6,6-Difluoro-5-(2-fluoro-5-pyridin-2-ylethynyl-phenyl)-5,7,7-trimethyl-2,5,6,7-tetrahydro-[1,4]oxazepin-3-ylamine] |
| 0.55 | CC1(C)OCC(N)=N[C@](C)(c2cc(-c3nc4cc(Cl)ccc4o3)c(F)cc2F)C1(F)F [Example 41, (R)-5-[5-(5-Chloro-benzooxazol-2-yl)-2,4-difluoro-phenyl]-6,6-difluoro-5,7,7-trimethyl-2,5,6,7-tetrahydro-[1,4]oxazepin-3-ylamine] |
